Patent US20260070895A1, “CRYSTALLINE FORMS” (QUIMATRYX, S.L., priority 2022, published 2026)
In brackets after ≈: the same amount, converted by molar mass. Entries after “also recorded” stand apart in the source; their conditions may differ. Where two headings read alike, the source gives them in different places.

How the values were obtained:
Type in all cases: physicochemical
[1] = Photostability in solution (THF and water), HPLC; settings: in solution (THF and water), sealed under nitrogen in amber glass bottles; for degradation (in words): up to 171 hours
Description: (§1) The method for determining purity by HPLC—used throughout these examples—used the following parameters:
(§2) The photostability of novel crystalline forms of QTX125 was assessed at solid state and in solution. Where ‘forced illumination’ conditions were used, samples were illuminated at 12 Klux/hour and 2.8 UV W/m^2/hour. Samples were stored at a temperature of 30° C. Following incubation, the chemical purity of QTX125 was measured by HPLC.
(§3) The following index is provided to aid navigation of the data presented in Tables 3.1.1 to 3.3.6: • 3.1.x—Assessment of the photostability of QTX125 Form 2. • 3.2.x—Assessment of the photostability of amorphous QTX125. • 3.3.x—Assessment of the photostability of the QTX125 1:2 L-Lysine adduct. • 3.x.1—Samples (at solid state) stored in unsealed clear glass bottles, subject to forced illumination. • 3.x.2—Samples (at solid state) sealed under nitrogen in clear glass bottles, subject to forced illumination. • 3.x.3—Samples (at solid state) sealed under nitrogen in amber glass bottles, illuminated under ambient laboratory conditions • 3.x.4—Samples (at solid state) sealed under nitrogen in amber glass bottles, subject to forced illumination. • 3.x.5—Samples (in solution) sealed under nitrogen in amber glass bottles, illuminated under ambient laboratory conditions. • 3.x.6—Samples (in solution) sealed under nitrogen in amber glass bottles, subject to forced illumination.

[2] = Aqueous solubility at 37° C. (HPLC of filtered suspension); settings: 37° C.
Description: The solubility of novel crystalline forms of QTX125 was assessed in the following aqueous solutions: (i) phosphate buffer, pH 3.5, 0.9% w/v sodium chloride; (ii) phosphate buffer, pH 6.5, 0.9% w/v sodium chloride; (iii) acetate buffer, pH 4.5, 0.9% w/v sodium chloride; (iv) citro-phosphate buffer, pH 4.5, 0.9% w/v sodium chloride; (v) sodium chloride, 0.9% w/v and (vi) deionised water. All assays were completed at 37° C.
In brief, 30 mg QTX125 was dispensed into vessels followed by 5 mL of the appropriate aqueous buffer. Mixtures were suspended by agitation and heated to 37° C. At various fixed intervals, an 0.4 mL aliquot of the suspension was removed, filtered and diluted for examination by HPLC. A single HPLC reference sample was used.

[3] = Photostability at solid state (chemical purity by HPLC after illumination)
Description: as §1, §2, §3

[4] = ambient laboratory conditions, 0 hours
[5] = ambient laboratory conditions, 3 hours
[6] = ambient laboratory conditions, 26 hours
[7] = ambient laboratory conditions, 171 hours
[8] = ambient laboratory conditions, 171 hours, listed as Form 2
[9] = forced illumination, 171 hours, listed as Form 2
[10] = 0.9% w/v sodium chloride solution, saline or isotonic, thermodynamic from solid, buffer (v) sodium chloride, 0.9% w/v, read-out: concentration of QTX125 (solubility)
[11] = acetate buffer with 0.9% w/v sodium chloride, aqueous buffer, thermodynamic from solid, buffer (iii) acetate buffer, pH 4.5, 0.9% w/v sodium chloride, read-out: concentration of QTX125 (solubility)
[12] = citro-phosphate buffer with 0.9% w/v sodium chloride, aqueous buffer, thermodynamic from solid, buffer (iv) citro-phosphate buffer, pH 4.5, 0.9% w/v sodium chloride, read-out: concentration of QTX125 (solubility)
[13] = phosphate buffer with 0.9% w/v sodium chloride, aqueous buffer, thermodynamic from solid, buffer (i) phosphate buffer, pH 3.5, 0.9% w/v sodium chloride, read-out: concentration of QTX125 (solubility)
[14] = phosphate buffer with 0.9% w/v sodium chloride, aqueous buffer, thermodynamic from solid, buffer (ii) phosphate buffer, pH 6.5, 0.9% w/v sodium chloride, read-out: concentration of QTX125 (solubility)
[15] = thermodynamic from solid, buffer (vi) deionised water, read-out: concentration of QTX125 (solubility)
[16] = solid-state, sealed under nitrogen in amber glass bottles, ambient laboratory conditions, 0 hours

Q: Which results are given for `O=C(NO)c1ccc(CNC(=O)c2[nH]c(-c3ccc(O)cc3)cc2-c2ccoc2)cc1` [QTX125 Form 2, 3-(3-Furyl)-N-{4-[(hydroxyamino)carbonyl]benzyl}-5-(4-hydroxyphenyl)-1H-pyrrole-2-carboxamide]?
A: HPLC peak area, QTX125 RRT 1.00 [1, 4]: 98.21%; HPLC peak area, RRT 1.04 [1, 4]: 0.98%; HPLC peak area, QTX125 RRT 1.00 [1, 5]: 97.50%; HPLC peak area, RRT 1.04 [1, 5]: 1.06%; HPLC peak area, QTX125 RRT 1.00 [1, 6]: 97.65%; HPLC peak area, RRT 1.04 [1, 6]: 0.93%; HPLC peak area, QTX125 RRT 1.00 [1, 7]: 91.10%; HPLC peak area, RRT 1.04 [1, 7]: 4.81%; HPLC peak area, RRT 1.12 [1, 7]: 0.83%; HPLC peak area, QTX125 RRT 1.00 [1, 8]: 91.10%; HPLC peak area, RRT 1.04 [1, 8]: 4.81%; HPLC peak area, RRT 1.12 [1, 8]: 0.83%; degradation (in words) ([1]; ambient laboratory conditions): degrade; HPLC peak area, QTX125 RRT 1.00 ([1]; forced illumination, 0 hours): 98.21%; HPLC peak area, RRT 1.04 ([1]; forced illumination, 0 hours): 0.98%; HPLC peak area, QTX125 RRT 1.00 ([1]; forced illumination, 3 hours): 97.30%; HPLC peak area, RRT 1.04 ([1]; forced illumination, 3 hours): 1.07%; HPLC peak area, QTX125 RRT 1.00 ([1]; forced illumination, 26 hours): 96.27%; HPLC peak area, RRT 1.04 ([1]; forced illumination, 26 hours): 1.09%; HPLC peak area, QTX125 RRT 1.00 ([1]; forced illumination, 171 hours): 81.65%; HPLC peak area, RRT 1.04 ([1]; forced illumination, 171 hours): 3.60%; HPLC peak area, RRT 1.12 ([1]; forced illumination, 171 hours): 0.86%; HPLC peak area, QTX125 RRT 1.00 [1, 9]: 81.65%; HPLC peak area, RRT 1.04 [1, 9]: 3.60%; HPLC peak area, RRT 1.12 [1, 9]: 0.86%; degradation (in words) ([1]; forced illumination): degrade; solubility at 1 h [2, 10]: 0.68 µg/mL (≈ 1.63 µM); solubility at 4 h [2, 10]: 0.26 µg/mL (≈ 0.623 µM); solubility at 7 h ([2]; 0.9% w/v sodium chloride solution, saline or isotonic, thermodynamic from solid, buffer (v) sodium chloride, 0.9% w/v, 7 hours, read-out: concentration of QTX125 (solubility)): 0.22 µg/mL (≈ 0.527 µM); solubility at 24 h [2, 10]: 0.81 µg/mL (≈ 1.94 µM); solubility at 1 h [2, 11]: 0.25 µg/mL (≈ 0.599 µM); solubility at 4 h [2, 11]: 0.29 µg/mL (≈ 0.695 µM); solubility at 7 h ([2]; acetate buffer with 0.9% w/v sodium chloride, aqueous buffer, thermodynamic from solid, buffer (iii) acetate buffer, pH 4.5, 0.9% w/v sodium chloride, 7 hours, read-out: concentration of QTX125 (solubility)): 0.19 µg/mL (≈ 0.455 µM); solubility at 24 h [2, 11]: 0.5 µg/mL (≈ 1.2 µM); solubility ([2]; aqueous buffers (i) to (v), aqueous buffer, thermodynamic from solid, buffers (i) to (v), 1 to 24 hours, read-out: concentration values range (solubility)): 0.15 to 1.76 µg/mL (≈ 0.359 to 4.22 µM); concentration of QTX125 (solubility) ([2]; buffer (vi) deionised water, 7 hours): 27.82 µg/mL; solubility (in words) ([2]; buffers (i) to (v)): very low; solubility at 1 h [2, 12]: 0.32 µg/mL (≈ 0.767 µM); solubility at 4 h [2, 12]: 0.17 µg/mL (≈ 0.407 µM); solubility at 7 h ([2]; citro-phosphate buffer with 0.9% w/v sodium chloride, aqueous buffer, thermodynamic from solid, buffer (iv) citro-phosphate buffer, pH 4.5, 0.9% w/v sodium chloride, 7 hours, read-out: concentration of QTX125 (solubility)): 0.17 µg/mL (≈ 0.407 µM); solubility at 24 h [2, 12]: 0.4 µg/mL (≈ 0.958 µM); PXRD analysis of the solid recovered at 24 hours ([2]; deionised water (vi)): confirmed the entity as Form 2; solubility at 1 h [2, 13]: 0.77 µg/mL (≈ 1.84 µM); solubility at 4 h [2, 13]: 0.15 µg/mL (≈ 0.359 µM); solubility at 7 h ([2]; phosphate buffer with 0.9% w/v sodium chloride, aqueous buffer, thermodynamic from solid, buffer (i) phosphate buffer, pH 3.5, 0.9% w/v sodium chloride, 7 hours, read-out: concentration of QTX125 (solubility)): 0.5 µg/mL (≈ 1.2 µM); solubility at 24 h [2, 13]: 1.76 µg/mL (≈ 4.22 µM); solubility at 1 h [2, 14]: 0.33 µg/mL (≈ 0.791 µM); solubility at 4 h [2, 14]: 0.15 µg/mL (≈ 0.359 µM); solubility at 7 h ([2]; phosphate buffer with 0.9% w/v sodium chloride, aqueous buffer, thermodynamic from solid, buffer (ii) phosphate buffer, pH 6.5, 0.9% w/v sodium chloride, 7 hours, read-out: concentration of QTX125 (solubility)): 0.34 µg/mL (≈ 0.815 µM); solubility at 24 h [2, 14]: 0.63 µg/mL (≈ 1.51 µM); solubility at 1 h [2, 15]: 17.8 µg/mL (≈ 42.6 µM); solubility at 4 h [2, 15]: 22.4 µg/mL (≈ 53.6 µM); solubility at 24 h [2, 15]: 16.6 µg/mL (≈ 39.7 µM); solubility at 7 h ([2]; thermodynamic from solid, deionised water (buffer vi), following 7 hours of incubation, read-out: peak solubility): 27.8 µg/mL (≈ 66.6 µM); photostability as compared to amorphous QTX125 ([3]; at solid state): enhanced photostability; also recorded: improved photostability; HPLC peak area, QTX125 RRT 1.00 [3, 16]: 98.21%; HPLC peak area, RRT 1.04 [3, 16]: 0.98%
